In the kinase profiling compilation of Christmann-Franck et al. (2016):

Columns and labels:
Experiment in all cases: radiometric filter-binding kinase assay, Kinase HotSpot
Conditions in all cases: compound 0.5 µM; ATP 10 µM
ABL2 (human) = ABL2 (human) (UniProt P42684)
AURKB (human) = AURKB (human) (UniProt Q96GD4)
CAMK2D (human) = CAMK2D (human) (UniProt Q13557)
CAMKK2 (human) = CAMKK2 (human) (UniProt Q96RR4)
CDK1 CCNB1 (human) = CDK1 CCNB1 (human) (UniProt P06493+P14635)
CHEK2 (human) = CHEK2 (human) (UniProt O96017)
CLK4 (human) = CLK4 (human) (UniProt Q9HAZ1)
CSNK1G2 (human) = CSNK1G2 (human) (UniProt P78368)
DAPK1 (human) = DAPK1 (human) (UniProt P53355)
EGFR (human) = EGFR (human) (UniProt P00533)
EPHA1 (human) = EPHA1 (human) (UniProt P21709)
EPHA6 (human) = EPHA6 (human) (UniProt Q9UF33)
FER (human) = FER (human) (UniProt P16591)
FGFR3 (human) = FGFR3 (human) (UniProt P22607)
HCK (human) = HCK (human) (UniProt P08631)
HIPK1 (human) = HIPK1 (human) (UniProt Q86Z02)
IKBKE (human) = IKBKE (human) (UniProt Q14164)
INSR (human) = INSR (human) (UniProt P06213)
JAK3 JH1 JH2 (human) = JAK3 JH1 JH2 (human) (UniProt P52333)
LIMK1 (human) = LIMK1 (human) (UniProt P53667)
MAPK12 (human) = MAPK12 (human) (UniProt P53778)
MAPK3 (human) = MAPK3 (human) (UniProt P27361)
MYO3B (human) = MYO3B (human) (UniProt Q8WXR4)
NEK7 (human) = NEK7 (human) (UniProt Q8TDX7)
PAK4 (human) = PAK4 (human) (UniProt O96013)
PDPK1 (human) = PDPK1 (human) (UniProt O15530)
PKN2 (human) = PKN2 (human) (UniProt Q16513)
PRKACG (human) = PRKACG (human) (UniProt P22612)
PRKCB1 (human) = PRKCB1 (human) (UniProt P05771)
RPS6KA1 KD1 KD2 (human) = RPS6KA1 KD1 KD2 (human) (UniProt Q15418)
RPS6KB2 (human) = RPS6KB2 (human) (UniProt Q9UBS0)
STK38 (human) = STK38 (human) (UniProt Q15208)
TAOK1 (human) = TAOK1 (human) (UniProt Q7L7X3)
TLK2 (human) = TLK2 (human) (UniProt Q86UE8)
TNK2 (human) = TNK2 (human) (UniProt Q07912)
TSSK1B (human) = TSSK1B (human) (UniProt Q9BXA7)
TTK (human) = TTK (human) (UniProt P33981)
ULK3 (human) = ULK3 (human) (UniProt Q6PHR2)
PDGFRB (human) = PDGFRB (human) (UniProt P09619)
CSNK2A2 (human) = CSNK2A2 (human) (UniProt P19784)

NEK7 (human), sequence (Q8TDX7 whole entry, looked up): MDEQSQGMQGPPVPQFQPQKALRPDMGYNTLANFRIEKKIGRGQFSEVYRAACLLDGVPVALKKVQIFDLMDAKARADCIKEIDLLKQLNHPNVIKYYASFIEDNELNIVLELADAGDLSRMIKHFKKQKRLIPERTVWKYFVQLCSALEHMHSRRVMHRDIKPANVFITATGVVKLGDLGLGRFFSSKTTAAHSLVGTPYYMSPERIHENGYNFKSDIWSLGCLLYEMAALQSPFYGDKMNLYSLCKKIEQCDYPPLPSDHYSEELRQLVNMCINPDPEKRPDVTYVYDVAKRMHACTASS
CHEK2 (human), sequence (O96017 whole entry, looked up): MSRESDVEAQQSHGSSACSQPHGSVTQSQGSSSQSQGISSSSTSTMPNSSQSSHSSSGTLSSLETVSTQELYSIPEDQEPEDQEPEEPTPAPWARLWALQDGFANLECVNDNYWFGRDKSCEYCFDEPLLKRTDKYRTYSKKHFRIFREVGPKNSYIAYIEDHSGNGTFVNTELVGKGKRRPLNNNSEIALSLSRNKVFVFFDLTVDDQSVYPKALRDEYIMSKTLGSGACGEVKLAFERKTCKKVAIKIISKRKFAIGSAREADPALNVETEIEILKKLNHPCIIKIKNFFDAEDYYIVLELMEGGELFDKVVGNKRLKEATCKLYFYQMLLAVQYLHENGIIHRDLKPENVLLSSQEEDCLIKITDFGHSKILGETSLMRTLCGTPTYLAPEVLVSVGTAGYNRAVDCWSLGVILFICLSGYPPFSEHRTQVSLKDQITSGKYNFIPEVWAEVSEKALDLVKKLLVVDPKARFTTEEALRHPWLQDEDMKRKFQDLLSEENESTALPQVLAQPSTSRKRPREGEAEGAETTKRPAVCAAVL
EPHA6 (human), sequence (Q9UF33 whole entry, looked up): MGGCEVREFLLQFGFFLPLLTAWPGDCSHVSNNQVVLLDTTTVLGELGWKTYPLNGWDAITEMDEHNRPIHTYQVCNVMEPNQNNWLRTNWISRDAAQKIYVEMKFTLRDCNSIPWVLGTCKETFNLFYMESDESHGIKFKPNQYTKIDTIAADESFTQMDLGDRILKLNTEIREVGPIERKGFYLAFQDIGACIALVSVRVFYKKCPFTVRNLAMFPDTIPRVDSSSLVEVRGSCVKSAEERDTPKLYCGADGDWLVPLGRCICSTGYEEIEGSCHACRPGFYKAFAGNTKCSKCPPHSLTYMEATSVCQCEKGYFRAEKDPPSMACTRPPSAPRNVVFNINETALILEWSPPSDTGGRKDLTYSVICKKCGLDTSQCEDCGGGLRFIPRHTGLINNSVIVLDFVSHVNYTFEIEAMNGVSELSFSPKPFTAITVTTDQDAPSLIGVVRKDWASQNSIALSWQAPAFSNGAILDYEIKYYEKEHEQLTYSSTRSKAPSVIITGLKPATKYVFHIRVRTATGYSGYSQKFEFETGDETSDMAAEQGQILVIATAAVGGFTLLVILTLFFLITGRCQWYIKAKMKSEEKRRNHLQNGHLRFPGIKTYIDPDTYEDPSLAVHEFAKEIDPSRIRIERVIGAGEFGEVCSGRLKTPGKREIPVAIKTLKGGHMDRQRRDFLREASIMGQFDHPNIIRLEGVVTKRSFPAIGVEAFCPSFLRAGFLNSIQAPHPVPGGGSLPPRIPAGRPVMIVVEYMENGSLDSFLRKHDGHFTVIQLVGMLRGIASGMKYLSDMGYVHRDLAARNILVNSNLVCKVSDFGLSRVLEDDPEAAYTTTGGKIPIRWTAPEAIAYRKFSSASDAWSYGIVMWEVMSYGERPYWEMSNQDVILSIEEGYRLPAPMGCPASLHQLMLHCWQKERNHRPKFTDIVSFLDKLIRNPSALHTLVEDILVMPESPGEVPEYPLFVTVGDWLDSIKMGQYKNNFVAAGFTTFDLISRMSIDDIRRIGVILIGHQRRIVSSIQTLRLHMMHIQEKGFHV
FER (human), sequence (P16591 whole entry, looked up): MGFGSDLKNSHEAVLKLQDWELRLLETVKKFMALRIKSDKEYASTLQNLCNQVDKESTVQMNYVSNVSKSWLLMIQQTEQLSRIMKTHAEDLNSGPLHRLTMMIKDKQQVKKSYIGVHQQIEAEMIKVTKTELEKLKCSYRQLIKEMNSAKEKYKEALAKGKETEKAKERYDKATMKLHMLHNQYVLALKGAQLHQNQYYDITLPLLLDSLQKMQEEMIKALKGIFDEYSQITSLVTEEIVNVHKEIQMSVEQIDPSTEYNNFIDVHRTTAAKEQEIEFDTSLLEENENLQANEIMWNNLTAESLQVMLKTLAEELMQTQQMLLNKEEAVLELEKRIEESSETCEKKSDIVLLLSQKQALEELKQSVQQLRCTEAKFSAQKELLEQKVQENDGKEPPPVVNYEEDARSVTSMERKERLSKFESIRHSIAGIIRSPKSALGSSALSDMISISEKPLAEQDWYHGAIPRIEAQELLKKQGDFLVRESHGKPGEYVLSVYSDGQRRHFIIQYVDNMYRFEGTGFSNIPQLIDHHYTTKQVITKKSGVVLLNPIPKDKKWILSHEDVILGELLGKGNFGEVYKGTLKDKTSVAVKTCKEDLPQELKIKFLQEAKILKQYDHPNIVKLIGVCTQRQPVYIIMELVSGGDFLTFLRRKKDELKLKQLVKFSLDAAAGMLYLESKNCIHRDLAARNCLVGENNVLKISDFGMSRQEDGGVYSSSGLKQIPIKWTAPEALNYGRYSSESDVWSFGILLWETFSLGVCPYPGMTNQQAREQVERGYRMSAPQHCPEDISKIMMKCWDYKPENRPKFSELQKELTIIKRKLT
TAOK1 (human), sequence (Q7L7X3 whole entry, looked up): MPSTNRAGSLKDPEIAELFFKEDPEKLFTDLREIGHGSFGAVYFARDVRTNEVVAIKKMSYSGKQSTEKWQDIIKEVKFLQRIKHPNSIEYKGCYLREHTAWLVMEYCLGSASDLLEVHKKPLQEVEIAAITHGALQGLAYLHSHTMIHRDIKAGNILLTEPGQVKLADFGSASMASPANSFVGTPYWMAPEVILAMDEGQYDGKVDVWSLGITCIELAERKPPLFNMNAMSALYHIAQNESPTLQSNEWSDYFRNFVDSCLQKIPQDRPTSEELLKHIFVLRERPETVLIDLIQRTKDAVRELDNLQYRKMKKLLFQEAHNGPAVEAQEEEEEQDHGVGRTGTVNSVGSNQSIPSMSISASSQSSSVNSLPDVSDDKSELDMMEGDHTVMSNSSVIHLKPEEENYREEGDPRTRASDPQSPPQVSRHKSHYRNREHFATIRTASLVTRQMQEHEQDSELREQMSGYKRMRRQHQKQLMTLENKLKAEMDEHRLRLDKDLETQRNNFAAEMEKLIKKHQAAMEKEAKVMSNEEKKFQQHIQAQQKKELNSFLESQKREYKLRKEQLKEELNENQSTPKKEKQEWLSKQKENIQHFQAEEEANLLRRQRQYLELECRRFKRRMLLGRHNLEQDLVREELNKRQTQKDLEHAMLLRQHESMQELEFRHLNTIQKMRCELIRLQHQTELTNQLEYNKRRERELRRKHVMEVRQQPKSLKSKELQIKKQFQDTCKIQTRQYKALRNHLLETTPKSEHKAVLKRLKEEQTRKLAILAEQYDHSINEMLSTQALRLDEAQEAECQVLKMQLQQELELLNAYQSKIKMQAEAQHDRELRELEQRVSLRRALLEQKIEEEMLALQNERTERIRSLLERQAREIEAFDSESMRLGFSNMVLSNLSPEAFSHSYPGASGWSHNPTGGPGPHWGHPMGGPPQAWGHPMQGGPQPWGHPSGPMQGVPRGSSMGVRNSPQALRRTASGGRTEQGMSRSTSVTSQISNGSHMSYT
MAPK3 (human), sequence (P27361 whole entry, looked up): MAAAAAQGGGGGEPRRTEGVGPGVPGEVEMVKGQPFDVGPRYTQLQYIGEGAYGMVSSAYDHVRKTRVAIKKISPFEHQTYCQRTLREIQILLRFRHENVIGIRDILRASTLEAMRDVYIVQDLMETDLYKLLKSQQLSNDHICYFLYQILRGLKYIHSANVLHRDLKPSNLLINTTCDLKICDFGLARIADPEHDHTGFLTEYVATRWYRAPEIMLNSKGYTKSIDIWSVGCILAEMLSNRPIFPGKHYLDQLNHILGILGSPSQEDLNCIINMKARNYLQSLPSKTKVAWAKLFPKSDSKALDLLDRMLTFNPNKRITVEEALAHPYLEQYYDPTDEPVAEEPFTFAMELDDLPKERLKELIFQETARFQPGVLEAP
CLK4 (human), sequence (Q9HAZ1 whole entry, looked up): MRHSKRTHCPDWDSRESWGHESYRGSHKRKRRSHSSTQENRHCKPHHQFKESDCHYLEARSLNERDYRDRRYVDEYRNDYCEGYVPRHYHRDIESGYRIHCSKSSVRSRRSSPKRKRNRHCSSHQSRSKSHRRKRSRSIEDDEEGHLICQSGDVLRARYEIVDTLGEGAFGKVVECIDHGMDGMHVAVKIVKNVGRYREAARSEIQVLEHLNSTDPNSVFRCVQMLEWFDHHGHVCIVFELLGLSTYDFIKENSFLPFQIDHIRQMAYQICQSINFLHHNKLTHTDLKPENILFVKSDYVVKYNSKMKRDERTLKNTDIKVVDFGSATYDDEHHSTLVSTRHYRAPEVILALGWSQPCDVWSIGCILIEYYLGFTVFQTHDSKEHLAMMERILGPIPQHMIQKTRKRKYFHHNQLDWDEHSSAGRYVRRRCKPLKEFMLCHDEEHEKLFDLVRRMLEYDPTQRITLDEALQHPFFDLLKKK
CSNK1G2 (human), sequence (P78368 whole entry, looked up): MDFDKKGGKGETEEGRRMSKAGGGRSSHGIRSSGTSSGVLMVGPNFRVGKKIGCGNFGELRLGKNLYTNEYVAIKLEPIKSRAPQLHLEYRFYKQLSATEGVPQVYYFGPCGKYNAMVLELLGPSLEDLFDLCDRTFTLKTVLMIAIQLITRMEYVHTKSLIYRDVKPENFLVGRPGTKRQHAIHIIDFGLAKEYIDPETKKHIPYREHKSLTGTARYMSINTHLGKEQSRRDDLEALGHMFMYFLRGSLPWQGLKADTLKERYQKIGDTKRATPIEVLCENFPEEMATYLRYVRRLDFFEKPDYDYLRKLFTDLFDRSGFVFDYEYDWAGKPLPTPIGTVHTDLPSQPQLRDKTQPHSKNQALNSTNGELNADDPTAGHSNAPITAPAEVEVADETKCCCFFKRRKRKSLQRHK

SMILES | residual activity (CAMK2D (human)) [%] | residual activity (CAMKK2 (human)) [%] | residual activity (CDK1 CCNB1 (human)) [%] | residual activity (CHEK2 (human)) [%] | residual activity (CLK4 (human)) [%] | residual activity (CSNK1G2 (human)) [%] | residual activity (DAPK1 (human)) [%] | residual activity (EPHA1 (human)) [%] | residual activity (EPHA6 (human)) [%] | residual activity (FER (human)) [%] | residual activity (INSR (human)) [%] | residual activity (JAK3 JH1 JH2 (human)) [%] | residual activity (LIMK1 (human)) [%] | residual activity (MAPK12 (human)) [%] | residual activity (MAPK3 (human)) [%] | residual activity (MYO3B (human)) [%] | residual activity (NEK7 (human)) [%] | residual activity (PAK4 (human)) [%] | residual activity (PDPK1 (human)) [%] | residual activity (PRKACG (human)) [%] | also measured
CCCNC(=O)Nc1ccc(Oc2ncnc3cc(OC)c(OC)cc23)cc1Cl | 89.4 | 91.5 | 98 | 80 | 94.2 | 84.8 | 104 | 96.9 | 77.7 | 74.1 | 92.4 | 88.9 | 81.6 | 61.9 | 105 | 76.2 | 103 | 95.7 | 86.8 | 106 | residual activity (ABL2 (human)): 90.5%; residual activity (AURKB (human)): 37%; residual activity (EGFR (human)): 88.1%; residual activity (FGFR3 (human)): 84.5%; residual activity (HCK (human)): 88.7%; residual activity (HIPK1 (human)): 96.8%; residual activity (IKBKE (human)): 93.5%; residual activity (PKN2 (human)): 99.2%; residual activity (PRKCB1 (human)): 100%; residual activity (RPS6KA1 KD1 KD2 (human)): 92.3%; residual activity (RPS6KB2 (human)): 104%; residual activity (STK38 (human)): 87.9%; residual activity (TAOK1 (human)): 92.2%; residual activity (TLK2 (human)): 99.5%; residual activity (TNK2 (human)): 96.5%; residual activity (TSSK1B (human)): 80.4%; residual activity (TTK (human)): 88.6%; residual activity (ULK3 (human)): 80.7%
O=c1cc(N2CCNCC2)oc2c(-c3ccccc3)cccc12 | 93.6 | 83.7 | 106 | 96.6 | 88.9 | 101 | 91.1 | 112 | 88.2 | 99.2 | 101 | 96.9 | 108 | 92 | 119 | 97.5 | 95.7 | 81.1 | 110 | 83.2 | residual activity (ABL2 (human)): 99.5%; residual activity (AURKB (human)): 97.8%; residual activity (EGFR (human)): 110%; residual activity (FGFR3 (human)): 96.3%; residual activity (HCK (human)): 93.7%; residual activity (HIPK1 (human)): 110%; residual activity (IKBKE (human)): 88.1%; residual activity (PDGFRB (human)): 101%; residual activity (PKN2 (human)): 99.5%; residual activity (PRKCB1 (human)): 91.6%; residual activity (RPS6KA1 KD1 KD2 (human)): 104%; residual activity (RPS6KB2 (human)): 91%; residual activity (STK38 (human)): 94.3%; residual activity (TAOK1 (human)): 90.8%; residual activity (TLK2 (human)): 94.8%; residual activity (TNK2 (human)): 90.7%; residual activity (TSSK1B (human)): 89.5%; residual activity (TTK (human)): 91.4%; residual activity (ULK3 (human)): 101%
C#Cc1cccc(Nc2ncnc3cc(OCCOC)c(OCCOC)cc23)c1 | 95.1 | 97.1 | 97.2 | 100 | 101 | 98.3 | 103 | 94.5 | 40.4 | 94 | 102 | 91.3 | 90.4 | 97.8 | 101 | 84.4 | 97.4 | 91.8 | 83.8 | 108 | residual activity (PRKCB1 (human)): 92.4%; residual activity (RPS6KA1 KD1 KD2 (human)): 97.6%; residual activity (RPS6KB2 (human)): 103%; residual activity (STK38 (human)): 101%; residual activity (TAOK1 (human)): 98.3%; residual activity (TLK2 (human)): 85.9%; residual activity (TSSK1B (human)): 78.9%; residual activity (TTK (human)): 91.8%; residual activity (ULK3 (human)): 105%
Cc1cc2ncc(-c3ccccc3)nc2cc1C | 88.1 | 91.8 | 108 | 96.8 | 96 | 86.5 | 88.4 | 99.9 | 93 | 91 | 94 | 101 | 102 | 87.3 | 106 | 99 | 102 | 105 | 103 | 95.8 | residual activity (ABL2 (human)): 103%; residual activity (AURKB (human)): 85.4%; residual activity (CSNK2A2 (human)): 90.3%; residual activity (EGFR (human)): 84.5%; residual activity (FGFR3 (human)): 98%; residual activity (HCK (human)): 90.1%; residual activity (HIPK1 (human)): 105%; residual activity (IKBKE (human)): 101%; residual activity (PDGFRB (human)): 89.1%; residual activity (PKN2 (human)): 104%; residual activity (PRKCB1 (human)): 103%; residual activity (RPS6KA1 KD1 KD2 (human)): 99.2%; residual activity (RPS6KB2 (human)): 98.7%; residual activity (STK38 (human)): 94.7%; residual activity (TAOK1 (human)): 94.3%; residual activity (TLK2 (human)): 100%; residual activity (TNK2 (human)): 98.4%; residual activity (TSSK1B (human)): 113%; residual activity (TTK (human)): 91%; residual activity (ULK3 (human)): 86.4%
COc1cc2nccc(Oc3ccc(NC(=S)NC(=O)c4ccccc4C)cc3)c2cc1OC | 102 | 75 | 90.7 | 67 | 87.8 | 106 | 101 | 83 | 33 | 58.2 | 100 | 96.6 | 82.7 | 96.8 | 106 | 83.4 | 106 | 100 | 105 | 107 | residual activity (ABL2 (human)): 74.1%; residual activity (AURKB (human)): 4.31%; residual activity (CSNK2A2 (human)): 96.6%; residual activity (EGFR (human)): 89.7%; residual activity (FGFR3 (human)): 88.8%; residual activity (HCK (human)): 4.93%; residual activity (HIPK1 (human)): 100%; residual activity (IKBKE (human)): 96.2%; residual activity (PDGFRB (human)): 26.7%; residual activity (PKN2 (human)): 109%; residual activity (PRKCB1 (human)): 91.9%; residual activity (RPS6KA1 KD1 KD2 (human)): 97.3%; residual activity (RPS6KB2 (human)): 97.3%; residual activity (STK38 (human)): 107%; residual activity (TAOK1 (human)): 71.3%; residual activity (TLK2 (human)): 85.3%; residual activity (TNK2 (human)): 26.9%; residual activity (TSSK1B (human)): 83.6%; residual activity (TTK (human)): 101%; residual activity (ULK3 (human)): 86.8%
